Source: patent publication US20180326021A1, “Methods and Compositions for the Treatment of Cytoplasmic Glycogen Storage Disorders” (Duke University, priority 2015, published 2018)
Several values for one entry are separate records, joined by “and”; a condition that tells them apart may be missing. Equal values may be shown once. Entries after “also recorded” stand apart in the source; their conditions may differ.

Columns and labels:
[1] = system: GSD IV mice; experiment: Short-term rhGAA enzyme replacement therapy in GSD IV mice; format: in vivo, mouse
Description: (§1) Methods: A short-term study was conducted to determine the minimum effective dose (MED) of rhGAA treatment with 3 dosages: 20 mg/kg (human equivalent dose, n=6), 40 mg/kg (n=9), and 100 mg/kg (n=8). Male GSD IV mice received weekly intravenous injections of rhGAA were conducted for 4 week starting at age of 10 weeks. A group of age-matched untreated mice (n=8) were used as controls. To prevent anaphylactic reactions, the animals were administered 25 mg/kg diphenhydramine (i.p.) 10-15 min prior to enzyme administration. All mice were sacrificed 48 hours after the last injection following overnight fasting. Fresh tissues were immediately frozen and stored at −80° C. until use for GAA activity and glycogen content analyses. Protein concentration was measured using BCA method.

[2] = system: primary muscle cells from GSD IIIa patients; experiment: rhGAA treatment of cultured primary muscle cells from GSD III patients; format: cell-based, human; conditions: normal and GSD III patient primary muscle cells, rhGAA added to culture
Description: FIG. 2 illustrates an analysis of the skeletal muscle biopsies from two GSD Ma patients, a person (Pt. 1) and a person (Pt. 2). […] (B) Under EM, occasional lysosomal glycogen (arrow) was also seen in the myocytes (scale bar=1 μm). […] (E) GAA activity in normal and patient cells 48 h after adding recombinant human acid alpha-glucosidase (rhGAA, Myozyme, alglucosidase alfa) treatment. […] Mean±standard deviation is shown in C—F (n=4). The significance of differences between two different groups was assessed using the two-tailed, equal variance student T-test ([…]).

[3] = system: GSD III mice; experiment: Short-term rhGAA enzyme replacement therapy in GSD III mice; format: in vivo, mouse
Description: as §1, with “GSD III mice were used to test 3 dosages” for “A short-term study was conducted”, “treatment:” for “treatment with 3 dosages:”, “(n=6),” for “(human equivalent dose, n=6),”, “(n=5),” for “(n=9),”, “(n=7). Weekly” for “(n=8). Male GSD IV mice received weekly”, “10 -15” for “10-15”

[4] = system: primary GSD IV mouse muscle cells; experiment: rhGAA treatment of cultured primary myoblasts from GSD IV mice; format: cell-based
Description: Primary myoblast cells were isolated from 7-day-old GSD IV mouse skeletal muscle. Early passage cells were seeded in 10-cm culture dishes with EMEM medium containing 10% FBS. When cells reached 90% confluence, rhGAA was added to the culture medium (final activity =1000 nmol/hr/ml). The cells were harvested 24 hours later to analyze glycogen content and GAA activity.
Reduction of glycogen deposition in GSD IV mouse myoblasts by rhGAA treatment was also confirmed by immunofluorescence staining using a mouse anti-glycogen monoclonal antibody ESG1A9mAb.

[5] = system: patient with PRKAG2 pathogenic gene mutation; experiment: Alglucosidase alfa ERT in a patient with PRKAG2 mutation (case report); format: in vivo, human; conditions: for overall clinical response (neurological, occupational and physical therapy reports): after reinitiation of ERT
Excerpt: A patient was born by caesarian section at 38 weeks gestation as a result of the nuchal cord being wrapped around their neck. The patient was noted to have hypotonia and generalized muscle weakness. They were areflexic and had feeding difficulties. The patient began developing severe lower respiratory infections which led to frequent admissions to the hospital. […] Following numerous recurrent pneumonias, and the history of muscle weakness, the patient's physicians raised Pompe disease as a potential diagnosis. […] Given the early findings of hypotonia and the low GAA enzyme activity, a diagnosis of non-classic infantile Pompe disease was made. The patient was initiated on ERT with alglucosdase alfa at a dose of 20 mg/kg every 2 weeks.
Baseline assessments were done which included tests for AST (44 IU/L; normal range: <45 IU/L), ALT (20 IU/L; normal range: 9-80 IU/L), along with PT measures looking at muscle strength and function measures. […] Upon examination, the patient has developed more defined calf muscles, along with an improvement of […] strength and power. […] has grown physically stronger and has not had episodes in which […] lacks energy for consecutive days, becomes completely floppy, and is unable to hold their head up properly following a seizure.
At baseline, according to the MABC assessment, the patient achieved a Total Test Score of 68 ranking them in the 25th percentile. Five months after reinitiation of ERT, the patient achieved a Total Test Score of 73 on […] MABC assessment, ranking them in the 37th percentile. A minimal detectable change (MDC) for the MABC has been reported as 1.21 points, representing a true change in motor function. The results in this child show an increase of 5 points over 5 months, which is greater than the minimal important difference (MID) of the MABC, which has been reported as a change of 2.5 points shown over 6 months.

[6] = 20 mg/kg weekly i.v. for 4 weeks
[7] = 40 mg and 100 mg rhGAA treatment
[8] = 40 mg/kg weekly i.v. for 4 weeks
[9] = weekly rhGAA for 4 weeks at 20, 40 or 100 mg/kg, data not shown
[10] = rhGAA 1000 nmol/hr/ml in medium, cells harvested 24 hours later
[11] = over 5 months on ERT vs pre-ERT baseline
[12] = reassessment, 5 months post ERT

recombinant human acid alpha-glucosidase [rhGAA]
glycogen in any tissue ([1]; 20 mg/kg): failed to reduce glycogen in any tissue
reduction of glycogen accumulation in liver ([1]; 20 mg/kg): not significant
GAA activity in heart, increase [1, 6]: 1.7 fold
GAA activity in liver, increase over untreated controls [1, 6]: 29 fold
liver glycogen decrease [1, 7]: 21-25%
GAA activity in heart, increase [1, 8]: 2.8 fold
glycogen content in liver, change [1, 8]: −21%
plasma alanine aminotransferase (ALT) ([1]; 40 mg/kg, p<0.01 vs untreated): 650±32 U/L
liver/body weight ratio ([1]; 40 mg/kg, p<0.05 vs untreated): 5.0±0.2%
plasma aspartate aminotransferase (AST) ([1]; 40 mg/kg, p=0.074 vs untreated): 849±50 U/L
GAA activity in skeletal muscles, increase ([1]; 100 mg/kg): 1.6 fold
glycogen content in liver, change ([1]; 100 mg/kg weekly i.v. for 4 weeks): −25%
GAA activity in tissues ([1]; 20, 40, 100 mg/kg, dose dependent): significant increase
GAA activity in quadriceps, increase ([1]; at either dosage (20 or 40 mg/kg)): negligible
GAA activity in gastrocnemius, increase ([1]; either treated group (20 or 40 mg/kg)): less than 1 fold
anti-GAA antibodies generated, compared with that reported in GAA-KO mice [1, 9]: significantly less
glycogen concentration [2]: significantly reduced
liver glycogen decrease [3, 7]: 24-25%
glycogen content in heart ([3]; 40 mg and 100 mg treatments): significantly reduced
glycogen content in liver ([3]; 40 mg and 100 mg treatments): significantly reduced
ratio of liver/body weight ([3]; 40 mg and 100 mg treatments): reduced
glycogen content in any tissues ([3]; 20-mg treatment): did not affect
glycogen content in skeletal muscles ([3]; 40-mg and 100-mg treatment groups): no significant change
GAA enzyme uptake (GAA activity rank order of tissues) ([3]; weekly i.v. for 4 weeks): liver>heart>diaphragm>leg muscles
plasma alanine aminotransferase (ALT) ([3]; weekly rhGAA for 4 weeks): reduction
plasma alkaline phosphatase (ALP) ([3]; weekly rhGAA for 4 weeks): reduction
plasma aspartate aminotransferase (AST) ([3]; weekly rhGAA for 4 weeks): reduction
plasma creatine kinase (CK) ([3]; weekly rhGAA for 4 weeks): reduction
anti-GAA antibodies generated, compared with that reported in GAA-KO mice [3, 9]: significantly less
glycogen deposition (immunofluorescence staining) ([4]; 4 hours after rhGAA treatment): reduction of glycogen was obvious
glycogen deposition (immunofluorescence staining) ([4]; 24 hours after rhGAA treatment): became more evident
glycogen deposition (anti-glycogen antibody ESG1A9mAb staining) ([4]; immunofluorescence staining): reduced glycogen deposition
GAA activity increase [4, 10]: 50%
glycogen content decrease [4, 10]: 24%
glycogen content ([4]; rhGAA treated vs untreated cells): significantly (p<0.01) reduced
visual motor, fine motor, and gross motor skills (M-FUN) ([5]; after five months of ERT): improvement
overall clinical response (neurological, occupational and physical therapy reports) ([5]; listed as ERT): a clinical benefit was noted; also recorded: significant positive response
overall clinical response (neurological, occupational and physical therapy reports) ([5]; listed as alglucosidase alfa): significant improvement; also recorded: significant musculoskeletal improvements
fatigue on reassessment ([5]; five months of ERT, listed as ERT): less fatigue
Movement ABC percentile increase [5, 11]: 12
Movement ABC score increase [5, 11]: 5 points
Movement ABC Total Test Score ([5]; re-assessment, 5 months after reinitiation of ERT): 73
Movement ABC percentile ([5]; re-assessment, 5 months after reinitiation of ERT, listed as ERT): 37 percentile and 37th percentile
M-FUN Fine Motor Progress Score [5, 12]: 394
M-FUN Fine Motor Scaled Score [5, 12]: 5 (considered mild/
M-FUN Fine Motor assessment notes [5, 12]: Patient's scaled scores show a fine motor improvement
M-FUN Gross Motor Progress Score [5, 12]: 407
M-FUN Gross Motor Scaled Score [5, 12]: 3 (considered very
M-FUN Gross Motor reassessment notes [5, 12]: gaining new motor skills and is improving in their current
M-FUN Visual Motor Progress Score [5, 12]: 496
M-FUN Visual Motor Scaled Score [5, 12]: 9 (considered “average” or
M-FUN Visual Motor assessment notes [5, 12]: Patient's scaled scores show a visual motor improvement
seizures ([5]; since reinitiation of ERT): better controlled
gross motor abilities assessed by physical therapist ([5]; three months after first initiation of ERT, 20 mg/kg every 2 weeks): began improving
